Results on ten molecules are retold here after US7109243B2 (IRM LLC, priority 2003, dated 2006).

One assay has as its target T1, Cathepsin K (Homo sapiens, UniProt P43235).
T1 sequence (P43235 115-329): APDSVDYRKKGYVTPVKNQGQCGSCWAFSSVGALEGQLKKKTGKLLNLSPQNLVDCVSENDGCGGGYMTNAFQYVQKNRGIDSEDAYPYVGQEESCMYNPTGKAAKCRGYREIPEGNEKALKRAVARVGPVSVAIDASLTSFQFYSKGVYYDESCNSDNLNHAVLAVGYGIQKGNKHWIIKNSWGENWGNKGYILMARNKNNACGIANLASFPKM
The assay can be described thus: Cathepsin K inhibition assay (fluorogenic peptide substrate); selectivity ratio vs cathepsin S. The note with it: ratio of cathepsin K inhibition constant to cathepsin S inhibition constant; Table II. Format: biochemical. The procedure:
The optimal substrate for cathepsin K, acetyl-lysine-histidine-proline-lysine-amino carbamoyl coumarin, was identified from screening a combinatorial library of fluorogenic peptide substrates (Harris, J. L., B. J. Backes, et al., Proc Natl Acad Sci USA 2000, 97(14), 7754-9). Kinetic measurements are performed in a total reaction volume of 30 μl in 384-well microtiter plates. […] The reactions are initiated by adding the substrate, acetyl-lysine-histidine-proline-lysine-amino carbamoyl coumarin, to a final concentration of 40 μM. The rate of substrate hydrolysis is measured by monitoring the increase in fluorescence at an excitation wavelength of 380 nm and an emission wavelength of 450 nm that results from cleavage of the aniline bond in the substrate by the enzyme. The apparent inhibition constants for the compounds are determined from the enzyme progress curves ([…]. Elrod, et al., Anal Biochem 2000, 286(1), 45-50) and are then used to calculate the inhibition constants for competitive inhibitors. Selectivity for cathepsin S in the presence of cathepsin isozymes was determined by the ratio of the cathepsin isozyme inhibition constant of a compound of the present invention to the cathepsin S inhibition constant of the same compound.

For a further assay, the target named is Cathepsin S (Homo sapiens, UniProt P25774). The assay is described as follows: Cathepsin S inhibition assay (fluorogenic peptide substrate). In kind it is biochemical. As to conditions: Table II, compounds of Formula I; read-out: Ki Cat. S. The procedure: “Inhibition constant”, Ki, is the dissociation constant of the enzyme-inhibitor complex, or the reciprocal of the binding affinity of the inhibitor to the enzyme. […] The inhibited rates are then fit by nonlinear regression to the following equation: […]
The assumption being made for the classical inhibition described above is that the free inhibitor concentration is equal to the total inhibitor concentration.
Kinetic measurements are performed in a total reaction volume of 30 μl in 384-well microtiter plates. […] The reactions are initiated by adding the substrate, acetyl-histidine-proline-valine-lysine-amino carbamoyl coumarin, to a final concentration of 50 μM. The rate of substrate hydrolysis is measured by monitoring the increase in fluorescence at an excitation wavelength of 380 nm and an emission wavelength of 450 nm that results from cleavage of the aniline bond in the substrate by the enzyme.

SMILES strings stand for the structures. Where only a bound is given, the exact number is not on record here.

Cathepsin S, sequence (P25774 115-331, species assumed): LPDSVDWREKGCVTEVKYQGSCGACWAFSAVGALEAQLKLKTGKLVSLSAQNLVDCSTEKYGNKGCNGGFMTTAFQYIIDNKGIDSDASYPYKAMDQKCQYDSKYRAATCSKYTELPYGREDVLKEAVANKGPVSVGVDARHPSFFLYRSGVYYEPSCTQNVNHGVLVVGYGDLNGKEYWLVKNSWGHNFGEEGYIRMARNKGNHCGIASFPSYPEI

Take `O=C(N[C@@H](CC1CCCCC1)C(=O)NCCNc1ccc(OC(F)F)cc1)c1ccc(-c2cccc(C(F)(F)F)c2)o1` [Compound 10, N-((S)-1-(2-(4-(difluoromethoxy)phenylamino)ethylcarbamoyl)-2-cyclohexylethyl)-5-(3-(trifluoromethyl)phenyl)furan-2-carboxamide]: the “Selectivity for Cat. S over Cat. K” value on Cathepsin K is “+++ (+++, >1000)”. Besides, the Ki at Cathepsin S is less than 100 nM.

As to `COc1ccc(NCCNC(=O)[C@H](CC2CCCCC2)NC(=O)c2cccc(Cl)c2F)cc1` [Compound 155, (S)-3-Chloro-N-{2-cyclohexyl-1-[2-(4-methoxy-phenylamino)-ethylcarbamoyl]-ethyl}-2-fluoro-benzamide], the “Selectivity for Cat. S over Cat. K” value at Cathepsin K is on record as “+++ (+++, >1000)”. Further, the Ki at Cathepsin S was less than 100 nM.

Turning to `COc1ccc(NCCNC(=O)[C@H](CC2CCCCC2)NC(=O)[C@@H](C)c2ccccc2)cc1` [Compound 192, N-{2-Cyclohexyl-1-(S)-[2-(4-methoxy-phenylamino)-ethylcarbamoyl]-ethyl}-2-(S)-phenyl-propionamide], the “Selectivity for Cat. S over Cat. K” value on Cathepsin K is recorded as “+++ (+++, >1000)”. Further, the Ki at Cathepsin S is less than 100 nM.

With `COc1ccc(NCCNC(=O)[C@H](Cc2ccccc2)NC(=O)Nc2cccc3ccccc23)cc1` [Compound 101, (S)-N-[2-(4-Methoxy-phenylamino)-ethyl]-2-(3-naphthalen-1-yl-ureido)-3-phenyl-propionamide], the “Selectivity for Cat. S over Cat. K” value on Cathepsin K is given as “+ (+, >10)”. In addition, the inhibitory constant (Ki) on Cathepsin S was less than 1000 nM.

Regarding `COc1ccc(NCCNC(=O)[C@H](Cc2ccc(-c3cccc([N+](=O)[O-])c3)cc2)NC(=O)c2cccc(C)c2)cc1` [Compound 271, (S)-N-[1-[2-(4-Methoxy-phenylamino)-ethylcarbamoyl]-2-(3′-nitro-biphenyl-4-yl)-ethyl]-3-methyl-benzamide], the “Selectivity for Cat. S over Cat. K” value at Cathepsin K is on record as “++ (++, >100)”. Moreover, at Cathepsin S, the Ki is less than 1000 nM.

For `CS(=O)(=O)c1ccc(CC(=O)N[C@@H](CC2CCCCC2)C(=O)NCCNc2ccc(F)cc2)cc1` [Compound 326, 3-Cyclohexyl-N-[2-(4-fluoro-phenylamino)-ethyl]-2-(S)-[2-(4-methanesulfonyl-phenyl)-acetylamino]-propionamide], the “Selectivity for Cat. S over Cat. K” value at Cathepsin K was “++ (++, >100)”. The Ki on Cathepsin S is less than 1000 nM.

Regarding `O=C(N[C@@H](CC1CCCCC1)C(=O)NCCNc1ccc(OC(F)(F)F)cc1)c1ccc(-c2ccccc2Cl)cc1` [Compound 194, (S)-2′-Chloro-biphenyl-4-carboxylic acid {2-cyclohexyl-1-[2-(4-trifluoromethoxy-phenylamino)-ethylcarbamoyl]-ethyl}-amide], at Cathepsin K, the “Selectivity for Cat. S over Cat. K” value is reported as “+ (+, >10)”. Also, on Cathepsin S, the Ki was less than 1000 nM.

Regarding `COc1ccc(NCCNC(=O)[C@H](Cc2ccc(Oc3ccc(OC)cc3)cc2)NC(=O)c2cccc(C)c2)cc1` [Compound 328, (S)-N-{2-[4-(4-Methoxy-phenoxy)-phenyl]-1-[2-(4-methoxy-phenylamino)-ethylcarbamoyl]-ethyl}-3-methyl-benzamide], the “Selectivity for Cat. S over Cat. K” value on Cathepsin K is listed as “++ (++, >100)”. The inhibition constant (Ki) on Cathepsin S was less than 1000 nM.

With `COc1ccc(NCCNC(=O)[C@H](Cc2ccc(Cl)c(Cl)c2)NC(=O)c2cccc(C)c2)cc1` [Compound 231, (S)-N-{2-(3,4-Dichloro-phenyl)-1-[2-(4-methoxy-phenylamino)-ethylcarbamoyl]-ethyl}-3-methyl-benzamide], the “Selectivity for Cat. S over Cat. K” value on Cathepsin K is on record as “+++ (+++, >1000)”. At Cathepsin S, the Ki is less than 100 nM.

Turning to `O=C(N[C@@H](CC1CCCCC1)C(=O)NCCNc1ccc(F)cc1)c1cscn1` [Compound 314, Thiazole-4-carboxylic acid (S)-{2-cyclohexyl-1-[2-(4-fluoro-phenylamino)-ethylcarbamoyl]-ethyl}-amide], at Cathepsin K, the “Selectivity for Cat. S over Cat. K” value was “+ (+, >10)”. On Cathepsin S, the Ki was less than 100 nM.
